US12066439B2, “Methods for enhancing specificity and sensitivity of group a Streptococcus immunoassay” (Becton, Dickinson and Company, priority 2021, dated 2024)
“Also recorded” adds a separate entry of the source.

Tests used:
[1] = tested on: anti-Strep A polyclonal antibodies; experiment: Strep A lateral flow immunoassay (Veritor Strep A), sensitivity with sample containing Strep A antigen; assay type: binding; conditions: for sensitivity of the Strep A assay: agent mixed with sample containing Strep A antigen, FIG. 10
Experimental: FIGS. 1A-1C show the effect of N-propionyl-D-glucosamine on the sensitivity and false positivity of the Veritor™ Strep A assay when analyzing a test sample. The N-propionyl-D-glucosamine was added to the extraction reagent and mixed with porcine mucin, a surrogate of human mucin from saliva for specificity, or with Strep A extract for sensitivity.
(§1) 2-N-butanoyl-D-glucosamide, or Bis-(2-(D-2-deoxy-glucosaminyl))-PEG3-amide were tested for their ability to inhibit or block the binding of the anti-Strep A polyclonal antibodies in the Strep A immunoassay (Veritor™ Strep A assay). Porcine mucin samples were used as a surrogate of human saliva sample, and were tested with an immunoassay test strip for specificity. Using an immunoassay device for detection of Strep A, the effect of 2-N-butanoyl-D-glucosamide, or Bis-(2-(D-2-deoxy-glucosaminyl))-PEG3-amide on the performance of Strep A assay was evaluated using 4× concentration of mucin standard (˜2.5 mg/mL) and Test Standard 1. Either 2-N-butanoyl-D-glucosamide, or Bis-(2-(D-2-deoxy-glucosaminyl))-PEG3-amide was added directly to the sample. Different concentrations of 2-N-butanoyl-D-glucosamide, or Bis-(2-(D-2-deoxy-glucosaminyl))-PEG3-amide in an immunoassay were evaluated for inhibition of Strep A false positive signals.

[2] = tested on: anti-Strep A polyclonal antibodies; experiment: Strep A lateral flow immunoassay (Veritor Strep A), false positive signal from porcine mucin samples; assay type: binding; conditions: for false positive signals from porcine mucin samples: agent added directly to the sample, 4x mucin standard (~2.5 mg/mL), FIGS. 5-6
Experimental: as §1, with “Either 2-N-butanoyl-D-glucosamide, or Bis-(2-(D-2-deoxy-glucosaminyl))-PEG3-amide was added directly to the sample.” left out
m-PEG4-glucosamine, m-PEG6-glucosamine, m-PEG10-glucosamine and m-PEG5000-glucosamine were tested for their ability to inhibit or block the binding of the anti-Strep A polyclonal antibodies in the Strep A immunoassay. […] Different concentrations of m-PEG4-glucosamine, m-PEG6-glucosamine, m-PEG10-glucosamine and m-PEG5000-glucosamine in an immunoassay were evaluated for inhibition of Strep A false positive signals.

[3] = tested on: Rabbit polyclonal antibodies for Group A Strep; conditions: previous studies, US 2013/0196337; cited from earlier work
[4] = tested on: anti-Strep A polyclonal antibodies; experiment: Strep A detection assay, agent added to extraction solution (GAS 1+2) without mucin; assay type: binding; conditions: no mucin, FIG. 11
[5] = tested on: anti-Strep A polyclonal antibodies; experiment: Strep A lateral flow immunoassay (Veritor Strep A), false positive signal from saliva samples; assay type: binding; conditions: saliva from asymptomatic patients; FIGS. 1-4
Experimental: Saliva samples were collected from four asymptomatic patients and tested with an immunoassay test strip for specificity. Previous studies have reported that samples obtained from the mouth tissues, saliva, cheek and tongue of healthy control patients show high false positive rates for Strep A when assayed via a lateral flow immunoassay. See US20130196337A1.
N-propionyl-D-glucosamine was tested for its ability to inhibit or block the binding of the anti-Strep A polyclonal antibodies in the Strep A immunoassay. Saliva samples from four asymptomatic patients were obtained for testing. Using an immunoassay device for detection of Strep A, the four saliva samples were each treated with the extraction reagents (such as the extraction reagents in a commercially available BD Veritor™ Strep A kit) in the presence of N-propionyl-D-glucosamine, which was dried on the conjugate pad during the spraying of liquid conjugate on the conjugate pad (labeling zone). Different concentrations of N-propionyl-D-glucosamine in an immunoassay were evaluated for inhibition of Strep A false positive signals.

[6] = agent added directly to the sample, Test Standard 1, FIGS. 5-6
[7] = agent mixed with porcine mucin sample, FIG. 10
[8] = high concentration in sample pad or conjugate pad dipping solution, FIG. 8
[9] = lower concentrations (zero to 12.5 mM tested) in conjugate pad dipping solution, FIG. 9

CCCC(=O)N[C@H]1C(O)O[C@H](CO)[C@@H](O)[C@@H]1O (stereo partly drawn) [2-N-butanoyl-D-glucosamide]
overall sensitivity of the Veritor Strep A assay [1, 6]: did not significantly reduce
false positive signals from porcine mucin samples [2]: efficiently suppressed

CC(=O)N[C@H]1C(O)O[C@H](CO)[C@@H](O)[C@@H]1O (stereo partly drawn) [N-acetyl-D-glucosamine]
assay sensitivity [3]: significant reduction
assay specificity (interference by salivary proteins) [3]: can improve assay specificity

m-PEG4-glucosamine
sensitivity of the Strep A assay [1]: without significant impact
mucin cross-reaction [2, 7]: effective in eliminating

Bis-(2-(D-2-deoxy-glucosaminyl))-PEG3-amide
true sensitivity ([1]; added in sample, two lots of Strep A devices, FIG. 7): slightly inhibited
overall sensitivity of the Veritor Strep A assay [1, 6]: did not significantly reduce
true signal [1, 8]: inhibit
true sensitivity [1, 9]: without much impact
mucin induced false positive signal ([2]; added in sample, two lots of Strep A devices that previously showed mucin cross-reaction, FIG. 7): significantly reducing
false positive signal ([2]; added to conjugate pad dipping solution and/or sample pad dipping solution, FIG. 8): significantly reduced
false positive signals from porcine mucin samples [2]: efficiently suppressed
false positive signal caused by mucin [2, 8]: effectively eliminate
mucin cross-reaction [2, 9]: effectively eliminate

m-PEG5000-glucosamine
false positive signal when mucin is not present [4]: no any false positive signal was observed
false positive signal caused by mucin ([2]; agent added to sample, mucin present, FIG. 11): did not reduce the false positive signal caused by mucin, but instead increases the false positive signal; also recorded: does not reduce the false positive signal caused by mucin, but instead increases the false positive signal

CCC(=O)N[C@H]1C(O)O[C@H](CO)[C@@H](O)[C@@H]1O (stereo partly drawn) [N-propionyl-D-glucosamine]
overall sensitivity of the Veritor Strep A assay ([1]; FIG. 1 and FIG. 3): did not reduce
false positive signals from saliva specimens [5]: efficiently suppressed

m-PEG6-glucosamine
sensitivity of the Strep A assay [1]: without significant impact
mucin cross-reaction [2, 7]: effective in eliminating

m-PEG10-glucosamine
sensitivity of the Strep A assay [1]: without significant impact
mucin cross-reaction [2, 7]: effective in eliminating
